The values that follow are results of earlier work, collected in patent US8697633B2, “Dissolution of arterial plaque” (AtheraNova Operations, Inc., priority 2005, dated 2014).

Data set [1] deals with atherosclerotic plaque. The conditions noted are these: 40 mg/day.
Data set [2] relates to atherosclerotic plaque. The conditions noted are these: dietary HDCA, relative to mice not provided HDCA.

As for `CC(C)c1nc(N(C)S(C)(=O)=O)nc(-c2ccc(F)cc2)c1/C=C/[C@@H](O)C[C@@H](O)CC(=O)O` [rosuvastatin], in the data set on atherosclerotic plaque [1], the “modulation of LDL, HDL, and triglyceride levels” value is on record as “particularly effective”. For the same compound, the “reduction of normalized total atheroma volume” value in the data set on atherosclerotic plaque [1] (after 2 years, SD=11.1) is given as 6.7%. The “reduction of plaque volume in the most diseased segments of vessels” value in the data set on atherosclerotic plaque [1] (after 2 years, SD=13.7) is recorded as 8.5%.

`C[C@H](CCC(=O)O)[C@H]1CC[C@H]2[C@@H]3C[C@H](O)[C@@H]4C[C@H](O)CC[C@]4(C)[C@H]3CC[C@]12C` [HDCA, hyodeoxycholic acid]: the “rate of formation of atherosclerotic plaque” value in the data set on atherosclerotic plaque [2] is “reduced rate of formation of atherosclerotic plaque”.
